Measured values: US11001569B2, “6-membered heteroaromatic substituted cyanoindoline derivatives as NIK inhibitors” (Janssen Pharmaceutica NV, priority 2016, dated 2021)
“And” between values parts separate entries of the source, which are not always exact repeats. Identical values can stand only once. Like-named read-outs stand apart in the source and are kept apart here.

What was measured:
[1] = system: JJN-3 (NIK translocated) multiple myeloma cells; test: Antiproliferative activity on JJN-3 multiple myeloma cells (CellTiter-Glo); format: cell-based, human; details: JJN-3 (NIK translocated) cells, 96 hr treatment, averaged values, read-out: JJN-3 Proliferation inhibition (IC50 (nM))
Method in brief: (§1)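 Cells plated at 15000 (JJN3) or 20000 (KMS12BM) per well and treated 96 h at 37° C, 5% CO2, final DMSO 0.3%, 9-point 1:3 dilutions. Viability by CellTiter-Glo luminescence; time-zero blank subtracted, growth expressed as percent of untreated control.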

[2] = system: KMS12-BM (NIK WT) multiple myeloma cells; test: Antiproliferative activity on KMS12-BM multiple myeloma cells (CellTiter-Glo); format: cell-based, human; details: 96 hr treatment, averaged values, read-out: KMS-12 Proliferation inhibition (IC50 (nM))
Method in brief: as §1

[3] = target: recombinant human NF-kappaB-inducing Kinase (NIK/MAP3K14) (Homo sapiens, UniProt Q99558); test: Inhibition of auto-phosphorylation of recombinant human NIK/MAP3K14 activity (AlphaScreen); format: biochemical; details: 25 microM ATP, averaged over all measurements on all batches
[4] = system: P-IKKα levels in L363 (NIK translocated multiple myeloma) cells; test: Effect of compounds on P-IKKα levels in L363 cells (Mesoscale sandwich immuno-assay); format: cell-based, human; details: 2 hr treatment, averaged values, read-out: Inhibition of pIKKα_L-363 (IC50 (nM))
Description: Effect of Compounds on P-IKKα Levels in L363 (NIK Translocated Multiple Myeloma) Cells
All compounds tested were dissolved in DMSO and further dilutions were made in culture medium. Final DMSO concentration was 1% (v/v) in cell assays. The human L363 cells (ATCC) were cultured in RPMI 1640 medium supplemented with GlutaMax and 10% fetal calf serum (PAA). Cells were routinely maintained at densities of 0.2×10^6 cells per ml-1×10^6 cells per ml at 37° C. in a humidified 5% CO2 atmosphere. Cells were passaged twice a week splitting back to obtain the low density. Cells were seeded in 96 well plates (Nunc 167008) at 2×10^6 per ml media in a volume of 75 μl per well plus 25 μl 1 μg/ml recombinant human B-cell activating factor (BAFF/BLyS/TNFSF13B). Seeded cells were incubated at 37° C. in a humidified 5% CO2 atmosphere for 24 hr. Drugs and/or solvents were added (20 μl) to a final volume of 120 μl. Following 2 hr treatment plates were removed from the incubator and cell lysis was achieved by the addition of 30 μl 5× lysis buffer followed by shaking on a plate shaker at 4° C. for 10 min. At the end of this incubation lysed cells were centrifuged at 800×g for 20 min at 4° C. and the lysate was assessed for P-IKK levels by sandwich immuno-assay carried out in anti-rabbit antibody coated Mesoscale plates. Within an experiment, the results for each treatment were the mean of 2 replicate wells. For initial screening purposes, compounds were tested using an 8 point dilution curve (serial 1:3 dilutions). […] The blank incubation value was subtracted from all control and sample values. To determine the IC50 a sigmoidal curve was fitted to the plot of % inhibition of control P-IKKα levels versus Log10 compound concentration.

Sequence of recombinant human NF-kappaB-inducing Kinase (NIK/MAP3K14) (Q99558 whole entry): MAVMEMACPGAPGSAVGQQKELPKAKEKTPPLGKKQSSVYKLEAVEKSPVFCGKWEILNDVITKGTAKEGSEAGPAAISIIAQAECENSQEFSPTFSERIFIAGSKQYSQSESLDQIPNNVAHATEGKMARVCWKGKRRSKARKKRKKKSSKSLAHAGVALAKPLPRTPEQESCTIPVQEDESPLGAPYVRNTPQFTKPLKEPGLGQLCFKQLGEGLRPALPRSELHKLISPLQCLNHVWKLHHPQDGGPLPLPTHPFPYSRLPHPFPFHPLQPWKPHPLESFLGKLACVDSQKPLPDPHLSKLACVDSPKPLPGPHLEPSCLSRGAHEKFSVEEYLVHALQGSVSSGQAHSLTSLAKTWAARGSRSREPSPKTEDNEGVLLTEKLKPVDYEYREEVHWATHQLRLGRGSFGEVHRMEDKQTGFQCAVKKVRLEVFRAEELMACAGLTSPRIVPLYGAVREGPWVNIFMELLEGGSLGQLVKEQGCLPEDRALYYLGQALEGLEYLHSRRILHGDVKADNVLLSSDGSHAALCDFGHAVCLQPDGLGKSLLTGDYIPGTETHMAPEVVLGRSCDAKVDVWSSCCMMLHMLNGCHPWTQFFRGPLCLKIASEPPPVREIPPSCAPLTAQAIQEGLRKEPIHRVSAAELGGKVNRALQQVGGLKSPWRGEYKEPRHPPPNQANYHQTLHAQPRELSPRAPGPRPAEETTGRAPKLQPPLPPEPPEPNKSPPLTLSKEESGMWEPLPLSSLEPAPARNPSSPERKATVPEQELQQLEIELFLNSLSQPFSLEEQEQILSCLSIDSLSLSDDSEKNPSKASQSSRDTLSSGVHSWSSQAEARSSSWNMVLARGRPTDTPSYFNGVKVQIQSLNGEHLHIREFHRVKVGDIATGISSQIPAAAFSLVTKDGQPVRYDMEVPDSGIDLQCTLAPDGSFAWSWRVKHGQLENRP

SMILES | melting point | IC50 ([1]; Homo sapiens, JJN-3, 96 h) [nM] | IC50 ([2]; Homo sapiens, KMS-12-BM, 96 h) [nM] | IC50 [3] [nM] | IC50 ([4]; Homo sapiens, L-363, 2 h) [nM] | IC50 [4] [nM] | IC50 [1] [nM] | IC50 [2] [nM]
Cc1cc(Nc2nccc(-c3cc(C#N)c4c(c3)[C@@](C)(CO)CN4)n2)c(=O)n(CC2(C)COC2)c1 [Compound 29i] | 129 °C | 100 | > 10000 | 3 | 3.7 |  |  | 
Cc1cnc(OCC2CN(C)CCO2)c(Nc2nccc(-c3cc(C#N)c4c(c3)[C@@](C)(CO)CN4)n2)c1 (single isomer, unassigned) [Compound 151] | 114 °C | 66 | > 10000 | 5.5 |  | 13.8 |  | 
Cc1cc(Nc2nccc(-c3cc(C#N)c4c(c3)[C@@](C)(CO)CN4)n2)c(=O)n(CC(C)N2CCOCC2)c1 (single isomer, unassigned) [Compound 22i] | 138 °C | 33 | 9120 | 3.4 | 2.1 |  |  | 
Cc1cnc(OCC2CC2)c(Nc2nccc(-c3cc(C#N)c4c(c3)[C@@](C)(CO)CN4)n2)c1 [Compound 86] | 206 °C | 1180 | > 10000 | 12 | 53.7 |  |  | 
COc1nc(/C=C/C(=O)N(C)C)ccc1Nc1nccc(-c2cc(C#N)c3c(c2)[C@@](C)(CO)CN3)n1 [Compound 48] | 192 °C | ~295 | > 10000 | 2.9 | 1.2 |  |  | 
Cc1cnc(C2CCOCC2)c(Nc2nccc(-c3cc(C#N)c4c(c3)[C@@](C)(CO)CN4)n2)c1 [Compound 173] | 225 °C | 933 | > 10000 | 15.1 | 69.2 |  |  | 
CC(C)(O)COc1ncc(C#N)cc1Nc1nccc(-c2cc(C#N)c3c(c2)[C@@](C)(CO)CN3)n1 [Compound 77] | 162 °C | 60 | > 10000 | 5 | 25.7 |  |  | 
Cc1cc(Nc2nccc(-c3cc(C#N)c4c(c3)[C@@](C)(CO)CN4)n2)c(=O)n(CCN2CCN(C)CC2)c1 [Compound 19i] | 148 °C | 25 | > 10000 | 0.6 | 2.5 |  |  | 
COc1ncc(C)cc1Nc1nccc(-c2cc(C#N)c3c(c2)[C@@](C)(CO)CN3)n1 [Compound 59] | 234 °C and 237 °C | 16 | > 10000 | 2.5 | 13.2 |  |  | 
Cc1cnc(OC2CCN(C)CC2)c(Nc2nccc(-c3cc(C#N)c4c(c3)[C@@](C)(CO)CN4)n2)c1 [Compound 146] | 135 °C | 5.2 | 7080 | 2.8 | 4.1 |  |  | 
Cc1cc(Nc2nccc(-c3cc(C#N)c4c(c3)[C@@](C)(CO)CN4)n2)c(OC(C)C)nc1CCN1CC(F)C1 [Compound 157] | 173 °C | 62 | > 10000 | 9.3 | 25.7 |  |  | 
Cc1cnc(C#N)cc1Nc1nccc(-c2cc(C#N)c3c(c2)[C@@](C)(CO)CN3)n1 [Compound 170] | 279 °C | 5 | > 10000 | 1.1 | 1 |  |  | 
Cc1cnc(OCC2COCCN2C)c(Nc2nccc(-c3cc(C#N)c4c(c3)[C@@](C)(CO)CN4)n2)c1 (single isomer, unassigned) [Compound 149] | 146 °C |  |  | 8.9 |  | 7.8 | 29 | > 10000
Cc1ncc(C#N)cc1Nc1nccc(-c2cc(C#N)c3c(c2)[C@@](C)(CO)CN3)n1 [Compound 50] | 247 °C | 145 | 6610 | 1.3 | 4.2 |  |  | 
Cc1cnc(OC2CN(C)CC2F)c(Nc2nccc(-c3cc(C#N)c4c(c3)[C@@](C)(CO)CN4)n2)c1 (stereo partly drawn) [Compound 153] | 180 °C | 240 | ~5890 | 5.8 |  | 9.3 |  | 
Cc1cc(Nc2nccc(-c3cc(C#N)c4c(c3)[C@@](C)(CO)CN4)n2)c(=O)n(CCN2CC(C)OC(C)C2)c1 (stereo partly drawn) [Compound 2i] | 135 °C | 479 | 5500 | 1.8 | 1.1 |  |  | 
Cc1cnc(CCN2CC(F)C2)c(Nc2nccc(-c3cc(C#N)c4c(c3)[C@@](C)(CO)CN4)n2)c1 [Compound 150] | 171 °C | 132 | > 10000 | 12 | 25.7 |  |  | 
C[C@]1(CO)CNc2c(C#N)cc(-c3ccnc(Nc4cc(C#N)cnc4CCC4CC4)n3)cc21 [Compound 64] | 145 °C | 35 | 6460 | 4.7 | 27.5 |  |  | 
CC(C)(O)c1ccc(Nc2nccc(-c3cc(C#N)c4c(c3)[C@@](C)(CO)CN4)n2)c(CCC2CC2)n1 [Compound 81] | 318 °C | 513 | > 10000 | 4.7 | 20.9 |  |  | 
COCCCc1ncc(C)cc1Nc1nccc(-c2cc(C#N)c3c(c2)[C@@](C)(CO)CN3)n1 [Compound 177] | 115 °C | 205 | > 10000 | 5.5 | 21.4 |  |  | 
Cc1cc(Nc2nccc(-c3cc(C#N)c4c(c3)[C@@](C)(COC(=O)C(C)C)CN4)n2)c(=O)n(CCN2CC(C)OC(C)C2)c1 (stereo partly drawn) [Compound 24i] | 120 °C | 32 | > 10000 | 23.4 | 5.5 |  |  | 
Cn1cc(Cl)cc(Nc2nccc(-c3cc(C#N)c4c(c3)[C@@](C)(CO)CN4)n2)c1=O [Compound 13i] | 306 °C | 31 | > 10000 | 1.9 | 0.9 |  |  | 
Cc1ncc(CO)cc1Nc1nccc(-c2cc(C#N)c3c(c2)[C@@](C)(CO)CN3)n1 [Compound 169] | > 260 °C | 263 | 4900 | 2.7 | 9.9 |  |  | 
COCCN(C)c1nc(C)c(Nc2nccc(-c3cc(C#N)c4c(c3)[C@@](C)(CO)CN4)n2)cc1Cl [Compound 51] | 152 °C | 31 | > 10000 | 3 | 2.8 |  |  | 
C[C@]1(CO)CNc2c(C#N)cc(-c3ccnc(Nc4cc(Cl)cnc4C4CC4)n3)cc21 [Compound 46] | 234 °C | 28 | ~7940 | 3 | 4.7 |  |  | 
COCCCc1ncc(C#N)cc1Nc1nccc(-c2cc(C#N)c3c(c2)[C@@](C)(CO)CN3)n1 [Compound 65] | 158 °C | 263 | > 10000 | 4.5 | 15.5 |  |  | 
C[C@]1(CO)CNc2c(C#N)cc(-c3ccnc(Nc4ccc[nH]c4=O)n3)cc21 [Compound 8i] | > 250 °C | 776 | > 10000 | 4.5 | 74.1 |  |  | 
CN(C)C(=O)COc1ncc(Cl)cc1Nc1nccc(-c2cc(C#N)c3c(c2)[C@@](C)(CO)CN3)n1 [Compound 52] | 281 °C | 251 | 871 | ~1.48 | 0.7 |  |  | 
CN1CCCC(COc2ncc(Cl)cc2Nc2nccc(-c3cc(C#N)c4c(c3)[C@@](C)(CO)CN4)n2)C1 (single isomer, unassigned) [Compound 55] | 204 °C |  |  | 3.8 |  | 67.6 | 69 | 1350
Cc1cnc(OCC2COCCN2C)c(Nc2nccc(-c3cc(C#N)c4c(c3)[C@@](C)(CO)CN4)n2)c1 (single isomer, unassigned) [Compound 148] | 154 °C |  | > 10000 | 8.5 | 13.8 |  | 135 | 
